# Test results from patent publication US10414811B2, “Protease-resistant lipidated GLP-1 analogs” (MEDIMMUNE LIMITED, priority 2015, dated 2019).
# Like-named read-outs stand apart in the source and are kept apart here. Numbered stars: 1 amine (or outer) side, 2 acyl side, 3 side chain; on linkers, the order of the positions; unused ones are H or OH. Square brackets hold non-standard residues; d marks the D form. Side chains are listed from the residue outwards. Peptide text beside a SMILES is read from it. * marks the point of attachment. γGlu = O=C(O)[C@H](CCC(=O)[*:2])N[*:1]; Palmitoyl = CCCCCCCCCCCCCCCC(=O)*; αMeF = C[C@](N)(Cc1ccccc1)C(=O)O; αMeK = C[C@](N)(CCCCN)C(=O)O; Lauroyl = CCCCCCCCCCCC(=O)*; αMeS = C[C@](N)(CO)C(=O)O; AEEA = NCCOCCOCC(=O)O; Aib = CC(C)(N)C(=O)O
# Assays:
# Assay type in all cases: cell-based
# [1] = molecular target: T1, human glucose-dependent insulinotropic peptide receptor (GIPR) (Homo sapiens, UniProt P48546); experiment: cAMP assay, human GIPR cells
# T1 construct: expressed in transfected cells
# T1 sequence (P48546 22-466): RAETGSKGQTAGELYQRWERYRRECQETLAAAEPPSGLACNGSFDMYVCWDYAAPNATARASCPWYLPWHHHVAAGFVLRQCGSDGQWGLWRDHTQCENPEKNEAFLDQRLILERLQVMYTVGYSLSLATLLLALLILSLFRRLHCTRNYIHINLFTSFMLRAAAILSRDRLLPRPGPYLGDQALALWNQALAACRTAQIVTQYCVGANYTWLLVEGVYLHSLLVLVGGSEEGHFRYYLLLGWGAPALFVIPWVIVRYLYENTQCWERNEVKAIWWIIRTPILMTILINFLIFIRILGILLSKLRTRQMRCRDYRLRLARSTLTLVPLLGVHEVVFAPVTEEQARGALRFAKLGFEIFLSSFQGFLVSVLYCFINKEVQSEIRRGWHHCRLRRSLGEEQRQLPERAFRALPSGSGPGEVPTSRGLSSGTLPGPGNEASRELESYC
# Summary of the method: (§1)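 Peptide-stimulated cAMP measured by two-step HTRF after a 30 min room-temperature incubation with receptor-expressing cells (hGLP-1R, hGIPR at 1×10^5 cells/ml; hGCGR at 2×10^5 cells/ml). Duplicate dilutions; EC50 from 4-parameter logistic fit of % Delta F.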
# GLP-1R (INS1e assay) = molecular target: T2, GLP-1R (INS1e assay) (Rattus norvegicus, UniProt P32301); experiment: INS1e assay, cAMP activity at GLP-1R
# T2 construct: endogenous in cells; host or cells: INS-1E cells
# T2 sequence (P32301 22-463): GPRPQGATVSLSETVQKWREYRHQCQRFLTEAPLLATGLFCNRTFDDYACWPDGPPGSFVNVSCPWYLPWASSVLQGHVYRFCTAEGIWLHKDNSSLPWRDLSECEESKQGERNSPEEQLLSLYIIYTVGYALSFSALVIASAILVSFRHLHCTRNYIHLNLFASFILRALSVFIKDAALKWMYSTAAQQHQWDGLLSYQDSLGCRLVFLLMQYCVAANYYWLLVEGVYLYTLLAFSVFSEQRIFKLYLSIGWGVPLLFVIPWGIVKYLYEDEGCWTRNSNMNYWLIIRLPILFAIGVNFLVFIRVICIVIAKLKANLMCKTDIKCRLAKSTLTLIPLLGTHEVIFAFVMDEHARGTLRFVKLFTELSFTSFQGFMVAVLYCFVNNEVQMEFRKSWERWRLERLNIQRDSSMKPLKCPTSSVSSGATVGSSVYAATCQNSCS
# Summary of the method: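 cAMP was quantified by two-step HTRF, using anti-cAMP cryptate donor and cAMP-d2 acceptor, each diluted 1/20 in conjugate and lysis buffer. EC50 values of the synthetic peptides were derived from the cAMP readout.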
# [2] = molecular target: T3, human glucagon receptor (GCGR) (Homo sapiens, UniProt P47871); experiment: cAMP assay, human GCGR cells
# T3 construct: expressed in transfected cells
# T3 sequence (P47871 26-477): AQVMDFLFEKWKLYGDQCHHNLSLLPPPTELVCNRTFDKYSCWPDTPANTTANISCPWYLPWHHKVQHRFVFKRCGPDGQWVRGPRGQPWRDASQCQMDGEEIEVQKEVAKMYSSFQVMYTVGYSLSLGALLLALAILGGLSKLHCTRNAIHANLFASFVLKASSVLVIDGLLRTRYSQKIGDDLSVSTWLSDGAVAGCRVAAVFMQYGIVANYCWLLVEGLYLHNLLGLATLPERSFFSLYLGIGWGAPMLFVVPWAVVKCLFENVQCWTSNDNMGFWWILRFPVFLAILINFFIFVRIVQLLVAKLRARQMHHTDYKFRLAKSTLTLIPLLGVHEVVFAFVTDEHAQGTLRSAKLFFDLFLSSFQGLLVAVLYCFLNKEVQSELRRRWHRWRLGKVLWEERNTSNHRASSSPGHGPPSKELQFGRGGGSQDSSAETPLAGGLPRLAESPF
# Summary of the method: as §1
# [3] = molecular target: T4, human GLP-1 receptor (GLP-1R) (Homo sapiens, UniProt P43220); experiment: cAMP assay, human GLP-1R cells
# T4 construct: expressed in transfected cells
# T4 sequence (P43220 24-463): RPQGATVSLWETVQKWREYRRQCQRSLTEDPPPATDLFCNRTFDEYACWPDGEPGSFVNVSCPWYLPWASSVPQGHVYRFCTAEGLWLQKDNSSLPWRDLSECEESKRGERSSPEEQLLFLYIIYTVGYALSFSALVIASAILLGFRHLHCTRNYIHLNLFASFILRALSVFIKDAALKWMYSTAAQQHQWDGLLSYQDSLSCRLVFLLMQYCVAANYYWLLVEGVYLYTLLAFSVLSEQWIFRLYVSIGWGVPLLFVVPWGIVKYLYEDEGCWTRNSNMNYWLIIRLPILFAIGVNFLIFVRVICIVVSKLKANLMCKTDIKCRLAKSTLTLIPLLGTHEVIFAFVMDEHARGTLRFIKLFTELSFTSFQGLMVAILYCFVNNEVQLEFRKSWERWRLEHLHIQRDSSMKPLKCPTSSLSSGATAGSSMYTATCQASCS
# Summary of the method: as §1
"EC50 ([1]; bis-lipidated peptides, first replicate, read-out: Primary assay EC50 GIP-R (n1))","EC50 (GLP-1R (INS1e assay); bis-lipidated peptides, mean of n1 and n2, read-out: INS1e assay EC50 Mean pM GLP-1R)","EC50 (GLP-1R (INS1e assay); bis-lipidated peptides, replicate n1, read-out: INS1e assay EC50 GLP-1R n1)","EC50 (GLP-1R (INS1e assay); bis-lipidated peptides, replicate n2, read-out: INS1e assay EC50 GLP-1R n2)","EC50 ([2]; bis-lipidated peptides, first replicate, read-out: Primary assay EC50 Gluc-R (n1))","EC50 ([3]; bis-lipidated peptides, replicate n1, read-out: Primary assay EC50 GLP-1R n1)","EC50 ([3]; bis-lipidated peptides, replicate n2, read-out: Primary assay EC50 GLP-1R n2)","EC50 ([1]; cAMP assay, first determination (n1), read-out: Primary assay EC50 GIP-R (n1))","EC50 ([1]; cAMP assay, second determination (n2), read-out: Primary assay EC50 GIP-R (n2))","EC50 (GLP-1R (INS1e assay); mono-lipidated peptides, mean of n1 and n2, read-out: INS1e assay EC50 Mean pM GLP-1R)","EC50 (GLP-1R (INS1e assay); mono-lipidated peptides, replicate n1, read-out: INS1e assay EC50 GLP-1R n1)","EC50 (GLP-1R (INS1e assay); mono-lipidated peptides, replicate n2, read-out: INS1e assay EC50 GLP-1R n2)","EC50 ([2]; cAMP assay, first determination (n1), read-out: Primary assay EC50 Gluc-R (n1))","EC50 ([2]; cAMP assay, second determination (n2), read-out: Primary assay EC50 Gluc-R (n2))","EC50 ([3]; cAMP assay, first determination (n1), read-out: Primary assay EC50 GLP-1R n1)","EC50 ([3]; cAMP assay, second determination (n2), read-out: Primary assay EC50 GLP-1R n2)","EC50 ([3]; mean of n1 and n2, read-out: Mean pM GLP-1R)",SMILES
≥ 21.5 nM,94 pM,101 pM,87.2 pM,≥ 21.5 nM,2.19 pM,2.31 pM,,,,,,,,,,,CCCCCCCCCCCC(=O)N[C@@H](CCC(=O)NCCOCCOCC(=O)NCCOCCOCC(=O)NCCCC[C@H](NC(=O)[C@H](C)NC(=O)[C@@H](NC(=O)[C@H](Cc1ccc(OC)cc1)NC(=O)[C@H](CCC(=O)O)NC(=O)[C@](C)(CCCCN)NC(=O)[C@H](C)NC(=O)[C@H](C)NC(=O)[C@H](CCC(=O)O)NC(=O)CNC(=O)[C@H](CCC(=O)O)NC(=O)[C@H](CC(C)C)NC(=O)[C@H](CCCCNC(=O)COCCOCCNC(=O)COCCOCCNC(=O)CC[C@H](NC(=O)CCCCCCCCCCC)C(=O)O)NC(=O)[C@H](CO)NC(=O)[C@](C)(CO)NC(=O)[C@@H](NC(=O)[C@H](CC(=O)O)NC(=O)[C@H](CO)NC(=O)[C@@H](NC(=O)[C@](C)(Cc1ccccc1)NC(=O)[C@H](CO)NC(=O)CNC(=O)[C@H](CCC(=O)O)NC(=O)C(C)(C)NC(=O)[C@@H](N)Cc1c[nH]cn1)[C@@H](C)O)C(C)C)[C@@H](C)CC)C(=O)N[C@H](C(=O)N[C@H](C(=O)N[C@@H](CCC(=O)O)C(=O)NCC(=O)NCC(N)=O)C(C)C)C(C)C)C(=O)O [compound 406] (H-H[Aib]EGS[αMeF]TSDV[αMeS]SK([AEEA-AEEA-γGlu-Lauroyl])LEGEAA[αMeK]EY(Me)IAK([AEEA-AEEA-γGlu-Lauroyl])VVEGG-NH2; N-terminus assumed)
,,,,,,,≥ 28 nM,≥ 28 nM,2720 pM,1930 pM,3500 pM,≥ 28 nM,≥ 28 nM,21 pM,27 pM,24 pM,CCCCCCCCCCCCCCCC(=O)N[C@@H](CCC(=O)NCCCC[C@H](NC(=O)[C@H](CO)NC(=O)[C@@H](NC(=O)[C@](C)(Cc1ccccc1)NC(=O)[C@H](CO)NC(=O)CNC(=O)[C@H](CCC(=O)O)NC(=O)C(C)(C)NC(=O)[C@@H](N)Cc1c[nH]cn1)[C@@H](C)O)C(=O)N[C@H](C(=O)N[C@@](C)(CO)C(=O)N[C@@H](CO)C(=O)N[C@@](C)(Cc1ccccc1)C(=O)N[C@@H](CC(C)C)C(=O)N[C@@H](CCC(=O)O)C(=O)NCC(=O)N[C@@H](CCC(=O)O)C(=O)N[C@@H](C)C(=O)N[C@@H](C)C(=O)N[C@@](C)(CCCCN)C(=O)N[C@@H](CCC(=O)O)C(=O)N[C@@](C)(Cc1ccccc1)C(=O)N[C@H](C(=O)N[C@@H](C)C(=O)N[C@@](C)(Cc1ccccc1)C(=O)N[C@H](C(=O)N[C@H](C(=O)N[C@@](C)(CCCCN)C(=O)NCC(=O)NCC(N)=O)C(C)C)C(C)C)[C@@H](C)CC)C(C)C)C(=O)O [compound 91] (H-H[Aib]EGS[αMeF]TSK([γGlu-Palmitoyl])V[αMeS]S[αMeF]LEGEAA[αMeK]E[αMeF]IA[αMeF]VV[αMeK]GG-NH2)
